# Key:
# [1] = tested on: Sitophilus zeamais; test: Antifeedant activity against adult of Sitophilus zeamais assessed as feeding deterrence index at 300 ppm after 3 days relative to control; assay type: functional
# [2] = tested on: Tribolium castaneum; test: Antifeedant activity against adult of Tribolium castaneum (red flour beetle) assessed as feeding deterrence index at 10 ppm after 3 days relative to control; assay type: functional
# [3] = tested on: Tribolium castaneum; test: Antifeedant activity against adult of Tribolium castaneum (red flour beetle) assessed as relative consumption rate at 300 ppm after 3 days relative to control; assay type: functional
# [4] = tested on: Tribolium castaneum; test: Antifeedant activity against larvae of Tribolium castaneum (red flour beetle) assessed as efficiency of conversion of ingested food at 10 ppm after 3 days relative to control; assay type: functional, Instar larval stage
# [5] = tested on: Tribolium castaneum; test: Antifeedant activity against adult of Tribolium castaneum (red flour beetle) assessed as relative growth rate at 100 ppm after 3 days relative to control; assay type: functional
# [6] = tested on: Tribolium castaneum; test: Antifeedant activity against larvae of Tribolium castaneum (red flour beetle) assessed as relative growth rate at 30 ppm after 3 days relative to control; assay type: functional
# [7] = tested on: Tribolium castaneum; test: Antifeedant activity against adult of Tribolium castaneum (red flour beetle) assessed as mortality at 30 ppm after 3 days relative to control; assay type: functional; conditions: 72 h
# [8] = tested on: Sitophilus zeamais; test: Antifeedant activity against adult of Sitophilus zeamais assessed as feeding deterrence index at 100 ppm after 3 days relative to control; assay type: functional
# [9] = tested on: Sitophilus zeamais; test: Antifeedant activity against adult of Sitophilus zeamais assessed as relative consumption rate at 300 ppm after 3 days relative to control; assay type: functional
# [10] = tested on: Tribolium castaneum; test: Antifeedant activity against larvae of Tribolium castaneum (red flour beetle) assessed as relative consumption rate at 300 ppm after 3 days relative to control; assay type: functional
# [11] = tested on: Tribolium castaneum; test: Antifeedant activity against larvae of Tribolium castaneum (red flour beetle) assessed as mortality at 30 ppm after 3 days relative to control; assay type: functional; conditions: 72 h
# [12] = tested on: Tribolium castaneum; test: Antifeedant activity against adult of Tribolium castaneum (red flour beetle) assessed as mortality at 100 ppm after 3 days relative to control; assay type: functional; conditions: 72 h
# [13] = tested on: Sitophilus zeamais; test: Antifeedant activity against adult of Sitophilus zeamais assessed as relative consumption rate at 3 ppm after 3 days relative to control; assay type: functional
# [14] = tested on: Sitophilus zeamais; test: Antifeedant activity against adult of Sitophilus zeamais assessed as mortality at 10 ppm after 3 days relative to control; assay type: functional; conditions: 72 h
# [15] = tested on: Sitophilus zeamais; test: Antifeedant activity against adult of Sitophilus zeamais assessed as relative growth rate at 30 ppm after 3 days relative to control; assay type: functional
# [16] = tested on: Tribolium castaneum; test: Antifeedant activity against larvae of Tribolium castaneum (red flour beetle) assessed as relative growth rate at 3 ppm after 3 days relative to control; assay type: functional
# [17] = tested on: Sitophilus zeamais; test: Antifeedant activity against adult of Sitophilus zeamais assessed as efficiency of conversion of ingested food at 30 ppm after 3 days relative to control; assay type: functional
# [18] = tested on: Tribolium castaneum; test: Antifeedant activity against larvae of Tribolium castaneum (red flour beetle) assessed as mortality at 3 ppm after 3 days relative to control; assay type: functional; conditions: 72 h
# [19] = tested on: Tribolium castaneum; test: Antifeedant activity against adult of Tribolium castaneum (red flour beetle) assessed as relative growth rate at 3 ppm after 3 days relative to control; assay type: functional
# [20] = tested on: Tribolium castaneum; test: Antifeedant activity against larvae of Tribolium castaneum (red flour beetle) assessed as feeding deterrence index at 100 ppm after 3 days relative to control; assay type: functional
# [21] = tested on: Tribolium castaneum; test: Antifeedant activity against larvae of Tribolium castaneum (red flour beetle) assessed as mortality at 300 ppm after 3 days relative to control; assay type: functional; conditions: 72 h
# [22] = tested on: Tribolium castaneum; test: Antifeedant activity against larvae of Tribolium castaneum (red flour beetle) assessed as feeding deterrence index at 300 ppm after 3 days relative to control; assay type: functional
# [23] = tested on: Sitophilus zeamais; test: Antifeedant activity against adult of Sitophilus zeamais assessed as relative consumption rate at 30 ppm after 3 days relative to control; assay type: functional
# [24] = tested on: Tribolium castaneum; test: Antifeedant activity against adult of Tribolium castaneum (red flour beetle) assessed as relative growth rate at 10 ppm after 3 days relative to control; assay type: functional
# [25] = tested on: Tribolium castaneum; test: Antifeedant activity against adult of Tribolium castaneum (red flour beetle) assessed as efficiency of conversion of ingested food at 30 ppm after 3 days relative to control; assay type: functional
# [26] = tested on: Sitophilus zeamais; test: Antifeedant activity against adult of Sitophilus zeamais assessed as relative growth rate at 300 ppm after 3 days relative to control; assay type: functional
# [27] = tested on: Tribolium castaneum; test: Antifeedant activity against larvae of Tribolium castaneum (red flour beetle) assessed as efficiency of conversion of ingested food at 30 ppm after 3 days relative to control; assay type: functional, Instar larval stage
# [28] = tested on: Tribolium castaneum; test: Antifeedant activity against adult of Tribolium castaneum (red flour beetle) assessed as efficiency of conversion of ingested food at 10 ppm after 3 days relative to control; assay type: functional
# [29] = tested on: Sitophilus zeamais; test: Antifeedant activity against adult of Sitophilus zeamais assessed as relative consumption rate at 10 ppm after 3 days relative to control; assay type: functional
# [30] = tested on: Sitophilus zeamais; test: Antifeedant activity against adult of Sitophilus zeamais assessed as relative growth rate at 3 ppm after 3 days relative to control; assay type: functional
# [31] = tested on: Sitophilus zeamais; test: Antifeedant activity against adult of Sitophilus zeamais assessed as relative consumption rate at 100 ppm after 3 days relative to control; assay type: functional
# [32] = tested on: Sitophilus zeamais; test: Antifeedant activity against adult of Sitophilus zeamais assessed as feeding deterrence index at 30 ppm after 3 days relative to control; assay type: functional
# [33] = tested on: Sitophilus zeamais; test: Antifeedant activity against adult of Sitophilus zeamais assessed as mortality at 30 ppm after 3 days relative to control; assay type: functional; conditions: 72 h
# [34] = tested on: Sitophilus zeamais; test: Antifeedant activity against adult of Sitophilus zeamais assessed as mortality at 3 ppm after 3 days relative to control; assay type: functional; conditions: 72 h
# [35] = tested on: Tribolium castaneum; test: Antifeedant activity against adult of Tribolium castaneum (red flour beetle) assessed as feeding deterrence index at 3 ppm after 3 days relative to control; assay type: functional
# [36] = tested on: Tribolium castaneum; test: Antifeedant activity against adult of Tribolium castaneum (red flour beetle) assessed as relative consumption rate at 30 ppm after 3 days relative to control; assay type: functional
# [37] = tested on: Tribolium castaneum; test: Antifeedant activity against adult of Tribolium castaneum (red flour beetle) assessed as relative consumption rate at 100 ppm after 3 days relative to control; assay type: functional
# [38] = tested on: Sitophilus zeamais; test: Antifeedant activity against adult of Sitophilus zeamais assessed as efficiency of conversion of ingested food at 10 ppm after 3 days relative to control; assay type: functional
# [39] = tested on: Tribolium castaneum; test: Antifeedant activity against adult of Tribolium castaneum (red flour beetle) assessed as efficiency of conversion of ingested food at 300 ppm after 3 days relative to control; assay type: functional, Instar larval stage
# [40] = tested on: Tribolium castaneum; test: Antifeedant activity against adult of Tribolium castaneum (red flour beetle) assessed as feeding deterrence index at 30 ppm after 3 days relative to control; assay type: functional
# [41] = tested on: Tribolium castaneum; test: Antifeedant activity against adult of Tribolium castaneum (red flour beetle) assessed as relative growth rate at 300 ppm after 3 days relative to control; assay type: functional
# [42] = tested on: Sitophilus zeamais; test: Antifeedant activity against adult of Sitophilus zeamais assessed as feeding deterrence index at 3 ppm after 3 days relative to control; assay type: functional
# [43] = tested on: Tribolium castaneum; test: Antifeedant activity against larvae of Tribolium castaneum (red flour beetle) assessed as efficiency of conversion of ingested food at 3 ppm after 3 days relative to control; assay type: functional
# [44] = tested on: Tribolium castaneum; test: Antifeedant activity against adult of Tribolium castaneum (red flour beetle) assessed as feeding deterrence index at 100 ppm after 3 days relative to control; assay type: functional
# [45] = tested on: Tribolium castaneum; test: Antifeedant activity against adult of Tribolium castaneum (red flour beetle) assessed as mortality at 3 ppm after 3 days relative to control; assay type: functional; conditions: 72 h
# [46] = tested on: Tribolium castaneum; test: Antifeedant activity against adult of Tribolium castaneum (red flour beetle) assessed as feeding deterrence index at 300 ppm after 3 days relative to control; assay type: functional
# [47] = tested on: Tribolium castaneum; test: Antifeedant activity against larvae of Tribolium castaneum (red flour beetle) assessed as relative growth rate at 10 ppm after 3 days relative to control; assay type: functional
# [48] = tested on: Tribolium castaneum; test: Antifeedant activity against larvae of Tribolium castaneum (red flour beetle) assessed as relative consumption rate at 10 ppm after 3 days relative to control; assay type: functional
compound,measurement,setting,value
COc1c2ccccc2nc2occc12 [DICTAMNINE],FDI,[1],68.04%
same,FDI,[2],17.06%
same,Activity,[3],22.21 µg/mg/day
same,Activity,[4],18.07%
same,Activity,[5],13.49 µg/mg/day
same,Activity,[6],31.75 µg/mg/day
same,mortality at 30 ppm,[7],0%
same,FDI,[8],51.77%
same,Activity,[9],35.13 µg/mg/day
same,Activity,[10],84.83 µg/mg/day
same,mortality at 30 ppm,[11],0%
same,mortality at 100 ppm,[12],0%
same,Activity,[13],126.78 µg/mg/day
same,mortality at 10 ppm,[14],0%
same,Activity,[15],12.08 µg/mg/day
same,Activity,[16],52.88 µg/mg/day
same,Activity,[17],9.78%
same,mortality at 3 ppm,[18],0%
same,Activity,[19],29.56 µg/mg/day
same,FDI,[20],64.42%
same,mortality at 300 ppm,[21],4%
same,FDI,[22],82.21%
same,Activity,[23],86.75 µg/mg/day
same,Activity,[24],27.3 µg/mg/day
same,Activity,[25],18.35%
same,Activity,[26],3.21 µg/mg/day
same,Activity,[27],20.53%
same,Activity,[28],19.91%
same,Activity,[29],110.95 µg/mg/day
same,Activity,[30],15.71 µg/mg/day
same,Activity,[31],52.65 µg/mg/day
same,FDI,[32],30.99%
same,mortality at 30 ppm,[33],0%
same,mortality at 3 ppm,[34],0%
same,FDI,[35],7.31%
same,Activity,[36],101.27 µg/mg/day
same,Activity,[37],59.8 µg/mg/day
same,Activity,[38],10.42%
same,Activity,[39],13.81%
same,FDI,[40],32.38%
same,Activity,[41],6.45 µg/mg/day
same,FDI,[42],9.69%
same,Activity,[43],19.8%
same,FDI,[44],59.58%
same,mortality at 3 ppm,[45],0%
same,FDI,[46],81.24%
same,Activity,[47],47.56 µg/mg/day
same,Activity,[48],213.17 µg/mg/day
CC1=C2C(=O)O[C@@H](c3ccoc3)[C@]2(C)CCC1 [FRAXINELLONE],FDI,[1],77.77%
same,FDI,[2],18.64%
same,Activity,[3],7.39 µg/mg/day
same,Activity,[4],20.9%
same,Activity,[5],9.41 µg/mg/day
same,Activity,[6],23.22 µg/mg/day
same,mortality at 30 ppm,[7],0%
same,FDI,[8],54.09%
same,Activity,[9],35.29 µg/mg/day
same,Activity,[10],30.12 µg/mg/day
same,mortality at 30 ppm,[11],0%
same,mortality at 100 ppm,[12],0%
same,Activity,[13],133.85 µg/mg/day
same,mortality at 10 ppm,[14],0%
same,Activity,[15],10.06 µg/mg/day
same,Activity,[16],52.62 µg/mg/day
same,Activity,[17],9.57%
same,mortality at 3 ppm,[18],0%
same,Activity,[19],30.45 µg/mg/day
same,FDI,[20],72.76%
same,mortality at 300 ppm,[21],12%
same,FDI,[22],95.68%
same,Activity,[23],113.45 µg/mg/day
same,Activity,[24],23.64 µg/mg/day
same,Activity,[25],19.1%
same,Activity,[26],4.26 µg/mg/day
same,Activity,[27],17.81%
same,Activity,[28],21.98%
same,Activity,[29],120.27 µg/mg/day
same,Activity,[30],15.22 µg/mg/day
same,Activity,[31],79.29 µg/mg/day
same,FDI,[32],30.76%
same,mortality at 30 ppm,[33],2%
same,mortality at 3 ppm,[34],0%
same,FDI,[35],8.46%
same,Activity,[36],83.91 µg/mg/day
same,Activity,[37],60.43 µg/mg/day
same,Activity,[38],11.25%
same,Activity,[39],10.07%
same,FDI,[40],40.07%
same,Activity,[41],1.48 µg/mg/day
same,FDI,[42],2.92%
same,Activity,[43],22.62%
same,FDI,[44],69.28%
same,mortality at 3 ppm,[45],0%
same,FDI,[46],95.05%
same,Activity,[47],41.3 µg/mg/day
same,Activity,[48],198.13 µg/mg/day

# From ChEMBL document CHEMBL3046561, “Feeding deterrents from Dictamnus dasycarpus Turcz against two stored-product insects” (J Agric Food Chem, 2002)
